Test results from patent US12391939B2, “Genetically-encoded bicyclic peptide libraries” (THE GOVERNORS OF THE UNIVERSITY OF ALBERTA, priority 2018, dated 2025).
Numbered stars: 1 amine (or outer) side, 2 acyl side, 3 side chain; on linkers, the order of the positions; unused ones are H or OH. Bridge positions count the residues as written; N and C are the ends. Ends that are not written are not given here. Peptide text beside a SMILES is read from it. X1 = O=C(C=NOCCCCCCOc1cc(C[*:2])cc(C[*:3])c1)[*:1]; X2 = O=C(C=NOCc1cc(C[*:2])cc(C[*:3])c1)[*:1]; TSL6 = not defined here

Legend:
in vitro = conditions: for remaining at 5 h: isolated enzyme pronase
Method: The mixture was analyzed by ion-selective LCMS. […] Linear, disulfide and two bicycle compounds made from TSL-1 and TSL-6 linker were incubated with Pronase™ for the indicated period of time (up to 5 hours). The reaction was diluted and analyzed by Ion selective MS-UPLC. The numbers indicate % of intact compound remaining after 5 hours of digestion.
In another rigorous stability test, an aggressive cocktail of endo- and exoproteases (Pronase) were used to digest linear sequence [sequence]

Nodal = target: T1, Nodal (Homo sapiens, UniProt Q96S42); experiment: Inhibition of Nodal-induced Smad2 phosphorylation in P19 cells (Western blot, anti-phospho Smad antibody); assay type: cell-based; conditions: for ability to antagonize the signaling function of protein Nodal: carcinoma cells
T1 construct: host or cells: added to embryonic carcinoma P19 cells
T1 sequence (Q96S42 238-347): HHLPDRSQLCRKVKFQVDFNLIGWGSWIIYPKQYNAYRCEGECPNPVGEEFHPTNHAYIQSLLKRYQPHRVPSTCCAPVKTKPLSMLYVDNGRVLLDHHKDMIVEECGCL
Method: To validate the binding ability of the predicted ligands, we tested the ability of the bicycles to inhibit a known signaling event induced by Nodal. Specifically, we employed Western blot with anti-phospho Smad antibody to detect Nodal-induced phosphorylation of effector protein Smad2 in embryonic carcinoma P19 cells. FIG. 17a describes that treatment of P19 cells with 100 ng/mL Nodal for 1 hour in Dulbecco's Modified Eagles Media (DMEM) supplemented with 2.5% fetal bovine serum (FBS)+7.5% bovine serum albumin (BSA) induces increase in pSmad2 intensity. Nodal-induced increase in pSmad is abrogated when P19 cells are incubated with 100 ng/mL Nodal and known kinase inhibitors SB-431542. […] The bicyclic peptides serve as antagonists of Nodal at 100 micromolar concentration.

remaining at 5 h (in vitro) [%] | Compound | other results
68 ± 14 | CC(C)C[C@@H]1NC(=O)[C@H](Cc2ccc(O)cc2)NC(=O)[C@@H]2CSCc3cc(cc(c3)OCCCCCCON=CC(=O)N[C@@H](Cc3c[nH]c4ccccc34)C(=O)N[C@@H](CC(=O)O)C(=O)N[C@@H](Cc3ccc(O)cc3)C(=O)N[C@@H](CCCNC(=N)N)C(=O)N[C@@H](CCC(=O)O)C(=O)N2)CSC[C@@H](C(=O)O)NC(=O)[C@H](CCC(=O)O)NC1=O (WDYRECYLEC-OH; linker N-6-10 via X1; C-terminus assumed) | 
82 ± 13 | CC(C)C[C@@H]1NC(=O)[C@H](Cc2ccc(O)cc2)NC(=O)[C@@H]2CSCc3cc(cc(c3)CSC[C@@H](C(=O)O)NC(=O)[C@H](CCC(=O)O)NC1=O)CON=CC(=O)N[C@@H](Cc1c[nH]c3ccccc13)C(=O)N[C@@H](CC(=O)O)C(=O)N[C@@H](Cc1ccc(O)cc1)C(=O)N[C@@H](CCCNC(=N)N)C(=O)N[C@@H](CCC(=O)O)C(=O)N2 (WDYRECYLEC-OH; linker N-6-10 via X2; C-terminus assumed) | half-life (in vitro; Streptomyces griseus): ~24 h
 | NC(=O)c1ccc(-c2nc(-c3ccc4c(c3)OCO4)c(-c3ccccn3)[nH]2)cc1 [SB-431542, reference compound] | Nodal-induced increase in pSmad with known kinase inhibitor (Nodal; P19 cells, 100 ng/mL Nodal, inhibitor concentration not given): abrogated
0.4 ± 0.1 | CC(C)C[C@H](NC(=O)[C@H](Cc1ccc(O)cc1)NC(=O)[C@H](CS)NC(=O)[C@H](CCC(=O)O)NC(=O)[C@H](CCCNC(=N)N)NC(=O)[C@H](Cc1ccc(O)cc1)NC(=O)[C@H](CC(=O)O)NC(=O)[C@H](Cc1c[nH]c2ccccc12)NC(=O)[C@@H](N)CO)C(=O)N[C@@H](CCC(=O)O)C(=O)N[C@@H](CS)C(=O)O [reference compound] (H-SWDYRECYLEC-OH; N-terminus and C-terminus assumed) | 
0.9 ± 0.4 | CC(C)C[C@@H]1NC(=O)[C@H](Cc2ccc(O)cc2)NC(=O)[C@@H](NC(=O)[C@H](CCC(=O)O)NC(=O)[C@H](CCCNC(=N)N)NC(=O)[C@H](Cc2ccc(O)cc2)NC(=O)[C@H](CC(=O)O)NC(=O)[C@H](Cc2c[nH]c3ccccc23)NC(=O)[C@@H](N)CO)CSSC[C@@H](C(=O)O)NC(=O)[C@H](CCC(=O)O)NC1=O [reference compound] (H-SWDYRECYLEC-OH; disulfide 7-11; N-terminus and C-terminus assumed) | 
 | SPCQRGHMFC (linker (positions not given here) via TSL6; reading uncertain; also: bicyclised with TSL6 linker) [bicyclic peptide 7] | ability to antagonize the signaling function of protein Nodal (Nodal): have the ability to antagonize
 | SYCKRAHKNC (linker (positions not given here) via TSL6; reading uncertain; also: bicyclised with TSL6 linker) [bicyclic peptide 11] | ability to antagonize the signaling function of protein Nodal (Nodal): have the ability to antagonize
